PubChem BioAssay AID2060912 (Molecular Pharmacology Branch, DTP, NCI, 2025)

System: HUVEC/MSC spheroids viability
Assay: Human HUVEC/MSC cell line growth inhibition [KRAS2];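 on viability, T/C: percent of DMSO vehicle control luminescence so 100% = untreated viability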
Settings: for IC50: curve of first compound; for viability, T/C: stronger effect = lower value
How it was run: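 Endothelial cells (HUVEC) plus mesenchymal stem cells, cultured at 37 °C/5% CO2 and assembled into spheroids without cancer cells, served as a stromal control. Drug pairs and single agents spanned half-log ranges anchored to clinical Cmax.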

For CC(=O)OC12COC1CC(O)C1(C)C(=O)C(O)C3=C(C)C(OC(=O)C(O)C(NC(=O)OC(C)(C)C)c4ccccc4)CC(O)(C(OC(=O)c4ccccc4)C21)C3(C)C (configuration not stated) + CNCc1ccccc1-c1csc(C(C)Nc2nc(C)nc3cc(OC)c(OC)cc23)c1, the IC50 (second compound 0.0316 µM) was less than 9.49 nM, the IC50 (second compound 0.1 µM) was less than 9.49 nM and the IC50 (second compound 0.316 µM) was 39.6 nM. The IC50 (second compound 1 µM) was greater than 3000 nM, the IC50 (second compound 3.16 µM) was greater than 3000 nM and the IC50 (second compound 10 µM) was less than 9.49 nM. It also gave a viability, T/C (second compound 0.0316 µM, first compound 0.00949 µM) of 40.6%, a viability, T/C (second compound 0.0316 µM, first compound 0.03 µM) of 40.6% and a viability, T/C (second compound 0.0316 µM, first compound 0.0949 µM) of 49.7%. For the same compound, the viability, T/C (second compound 0.0316 µM, first compound 0.3 µM) was 53%, the viability, T/C (second compound 0.0316 µM, first compound 0.949 µM) was 49.1% and the viability, T/C (second compound 0.0316 µM, first compound 3 µM) was 54.2%. It also gave a viability, T/C (second compound 0.1 µM, first compound 0.00949 µM) of 44.2%, a viability, T/C (second compound 0.1 µM, first compound 0.03 µM) of 43.3% and a viability, T/C (second compound 0.1 µM, first compound 0.0949 µM) of 51.8%. It also gave a viability, T/C (second compound 0.1 µM, first compound 0.3 µM) of 45.1%, a viability, T/C (second compound 0.1 µM, first compound 0.949 µM) of 42.9% and a viability, T/C (second compound 0.1 µM, first compound 3 µM) of 50%. For the same compound, the viability, T/C (second compound 0.316 µM, first compound 0.00949 µM) was 44.8%, the viability, T/C (second compound 0.316 µM, first compound 0.03 µM) was 56.5% and the viability, T/C (second compound 0.316 µM, first compound 0.0949 µM) was 54.6%. For the same compound, the viability, T/C (second compound 0.316 µM, first compound 0.3 µM) was 43.3%, the viability, T/C (second compound 0.316 µM, first compound 0.949 µM) was 48.8% and the viability, T/C (second compound 0.316 µM, first compound 3 µM) was 49%. The viability, T/C (second compound 1 µM, first compound 0.00949 µM) was 47.3%, the viability, T/C (second compound 1 µM, first compound 0.03 µM) was 62.2% and the viability, T/C (second compound 1 µM, first compound 0.0949 µM) was 68.9%. The viability, T/C (second compound 1 µM, first compound 0.3 µM) was 54.3%, the viability, T/C (second compound 1 µM, first compound 0.949 µM) was 55.4% and the viability, T/C (second compound 1 µM, first compound 3 µM) was 61.9%. It also gave a viability, T/C (second compound 3.16 µM, first compound 0.00949 µM) of 78.1%, a viability, T/C (second compound 3.16 µM, first compound 0.03 µM) of 73.5% and a viability, T/C (second compound 3.16 µM, first compound 0.0949 µM) of 73.8%. For the same compound, the viability, T/C (second compound 3.16 µM, first compound 0.3 µM) was 77.6%, the viability, T/C (second compound 3.16 µM, first compound 0.949 µM) was 76.8% and the viability, T/C (second compound 3.16 µM, first compound 3 µM) was 56.7%. For the same compound, the viability, T/C (second compound 10 µM, first compound 0.00949 µM) was 0.32%, the viability, T/C (second compound 10 µM, first compound 0.03 µM) was 0.36% and the viability, T/C (second compound 10 µM, first compound 0.0949 µM) was 0.39%. For the same compound, the viability, T/C (second compound 10 µM, first compound 0.3 µM) was 0.34%, the viability, T/C (second compound 10 µM, first compound 0.949 µM) was 0.34% and the viability, T/C (second compound 10 µM, first compound 3 µM) was 1.75%.
